Results from EP3717657B1, “A SYSTEM FOR ASSESSING MICROBIAL SUSCEPTIBILITY TO ANTIBIOTIC AGENTS” (Ascilion AB, priority 2017, dated 2019).
In brackets after ≈: the same amount, converted by molar mass.

Columns and labels:
[1] = test system: Escherichia coli ATCC 25922; settings: E.coli, cited from earlier work
[2] = test system: Staphylococcus aureus (ATCC 29213); test: Antibiotic susceptibility by glucose consumption in culture medium, blood culture bottle inoculum (Example 1); type: cell-based; settings: for Glucose concentration t=0: 0 minutes; for Glucose concentration t=60: 60 minutes; for Glucose concentration t=120: 120 minutes; for Glucose concentration t=180: 180 minutes; for Glucose concentration t=240: 240 minutes; for dC/dT: rate of change in glucose concentration;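 as to dC/dT: rate calculated between the 60 and 180 min readings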
Method in brief: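 Bacteria grown in blood culture bottles until positive, diluted 1:100 into cation-adjusted Mueller-Hinton broth with glucose at 1.0 mg/mL plus antibiotic (µg/mL). Glucose read by glucometer at 0–240 min.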

[3] = test system: Staphylococcus aureus ATCC 29213; settings: S.aureus, cited from earlier work; for MIC EUCAST, range in parentheses: range obtained by EUCAST from ISO 20776-1: 2006; for MIC EUCAST: reference MIC value, EUCAST QC tables Version 7.0, 2017
[4] = test system: Enterococcus faecalis ATCC 29212; settings: E.faecalis, cited from earlier work
[5] = range obtained by EUCAST from ISO 20776-1: 2006
[6] = reference MIC value, EUCAST QC tables Version 7.0, 2017

CO[C@@]1(NC(=O)Cc2cccs2)C(=O)N2C(C(=O)O)=C(COC(N)=O)CS[C@@H]21 [Cefoxitin]
MIC EUCAST, range in parentheses [1, 5]: 2 to 8 µg/mL | MIC EUCAST [1, 6]: 4 µg/mL (≈ 9.36 µM) | MIC ([2]; Staphylococcus aureus, ATCC29213, S.aureus, 80% threshold of rate of change vs reference, between 60 and 180 minutes, obtained in 4 hours, read-out: MIC Measured): 2 µg/mL (≈ 4.68 µM) | F=the rate of change in glucose concentration in relation to the reference ([2]; [Ab] 0,5 µg/mL): 96% | Glucose concentration t=0 ([2]; [Ab] 0,5 µg/mL): 144 | Glucose concentration t=60 ([2]; [Ab] 0,5 µg/mL): 155 | Glucose concentration t=120 ([2]; [Ab] 0,5 µg/mL): 130 | Glucose concentration t=180 ([2]; [Ab] 0,5 µg/mL): 91 | Glucose concentration t=240 ([2]; [Ab] 0,5 µg/mL): 32 | dC/dT ([2]; [Ab] 0,5 µg/mL): 32 | F=the rate of change in glucose concentration in relation to the reference ([2]; [Ab] 0,25 µg/mL): 91% | Glucose concentration t=0 ([2]; [Ab] 0,25 µg/mL): 143 | Glucose concentration t=60 ([2]; [Ab] 0,25 µg/mL): 152 | Glucose concentration t=120 ([2]; [Ab] 0,25 µg/mL): 132 | Glucose concentration t=180 ([2]; [Ab] 0,25 µg/mL): 91 | Glucose concentration t=240 ([2]; [Ab] 0,25 µg/mL): 33 | dC/dT ([2]; [Ab] 0,25 µg/mL): 31 | F=the rate of change in glucose concentration in relation to the reference ([2]; [Ab] 1 µg/mL): 82% | Glucose concentration t=0 ([2]; [Ab] 1 µg/mL): 147 | Glucose concentration t=60 ([2]; [Ab] 1 µg/mL): 155 | Glucose concentration t=120 ([2]; [Ab] 1 µg/mL): 133 | Glucose concentration t=180 ([2]; [Ab] 1 µg/mL): 100 | Glucose concentration t=240 ([2]; [Ab] 1 µg/mL): 40 | dC/dT ([2]; [Ab] 1 µg/mL): 28 | F=the rate of change in glucose concentration in relation to the reference ([2]; [Ab] 2 µg/mL): 72% | Glucose concentration t=0 ([2]; [Ab] 2 µg/mL): 141 | Glucose concentration t=60 ([2]; [Ab] 2 µg/mL): 146 | Glucose concentration t=120 ([2]; [Ab] 2 µg/mL): 143 | Glucose concentration t=180 ([2]; [Ab] 2 µg/mL): 98 | Glucose concentration t=240 ([2]; [Ab] 2 µg/mL): 61 | dC/dT ([2]; [Ab] 2 µg/mL): 24 | F=the rate of change in glucose concentration in relation to the reference ([2]; [Ab] 4 µg/mL): 16% | Glucose concentration t=0 ([2]; [Ab] 4 µg/mL): 142 | Glucose concentration t=60 ([2]; [Ab] 4 µg/mL): 150 | Glucose concentration t=120 ([2]; [Ab] 4 µg/mL): 143 | Glucose concentration t=180 ([2]; [Ab] 4 µg/mL): 139 | Glucose concentration t=240 ([2]; [Ab] 4 µg/mL): 139 | dC/dT ([2]; [Ab] 4 µg/mL): 6 | F=the rate of change in glucose concentration in relation to the reference ([2]; [Ab] 8 µg/mL): 24% | Glucose concentration t=0 ([2]; [Ab] 8 µg/mL): 136 | Glucose concentration t=60 ([2]; [Ab] 8 µg/mL): 157 | Glucose concentration t=120 ([2]; [Ab] 8 µg/mL): 160 | Glucose concentration t=180 ([2]; [Ab] 8 µg/mL): 141 | Glucose concentration t=240 ([2]; [Ab] 8 µg/mL): 149 | dC/dT ([2]; [Ab] 8 µg/mL): 8 | F=the rate of change in glucose concentration in relation to the reference ([2]; [Ab] 16 µg/mL): 22% | Glucose concentration t=0 ([2]; [Ab] 16 µg/mL): 140 | Glucose concentration t=60 ([2]; [Ab] 16 µg/mL): 157 | Glucose concentration t=120 ([2]; [Ab] 16 µg/mL): 152 | Glucose concentration t=180 ([2]; [Ab] 16 µg/mL): 142 | Glucose concentration t=240 ([2]; [Ab] 16 µg/mL): 142 | dC/dT ([2]; [Ab] 16 µg/mL): 8 | F=the rate of change in glucose concentration in relation to the reference ([2]; [Ab] 32 µg/mL): 27% | Glucose concentration t=0 ([2]; [Ab] 32 µg/mL): 145 | Glucose concentration t=60 ([2]; [Ab] 32 µg/mL): 154 | Glucose concentration t=120 ([2]; [Ab] 32 µg/mL): 145 | Glucose concentration t=180 ([2]; [Ab] 32 µg/mL): 136 | Glucose concentration t=240 ([2]; [Ab] 32 µg/mL): 139 | dC/dT ([2]; [Ab] 32 µg/mL): 9 | MIC EUCAST, range in parentheses [3]: 1 to 4 µg/mL | MIC EUCAST [3]: 2 µg/mL (≈ 4.68 µM)

CN[C@H](CC(C)C)C(=O)N[C@H]1C(=O)N[C@@H](CC(N)=O)C(=O)N[C@H]2C(=O)N[C@H]3C(=O)N[C@H](C(=O)N[C@H](C(=O)O)c4cc(O)cc(O)c4-c4cc3ccc4O)[C@H](O)c3ccc(c(Cl)c3)Oc3cc2cc(c3O[C@@H]2O[C@H](CO)[C@@H](O)[C@H](O)[C@H]2O[C@H]2C[C@](C)(N)[C@H](O)[C@H](C)O2)Oc2ccc(cc2Cl)[C@H]1O [Vancomycin]
F=the rate of change in glucose concentration in relation to the reference ([2]; [Ab] 0,5 µg/mL): 84% | Glucose concentration t=60 ([2]; [Ab] 0,5 µg/mL): 156 | Glucose concentration t=120 ([2]; [Ab] 0,5 µg/mL): 142 | Glucose concentration t=180 ([2]; [Ab] 0,5 µg/mL): 100 | Glucose concentration t=240 ([2]; [Ab] 0,5 µg/mL): 51 | dC/dT ([2]; [Ab] 0,5 µg/mL): 28 | F=the rate of change in glucose concentration in relation to the reference ([2]; [Ab] 0,25 µg/mL): 75% | Glucose concentration t=60 ([2]; [Ab] 0,25 µg/mL): 142 | Glucose concentration t=120 ([2]; [Ab] 0,25 µg/mL): 133 | Glucose concentration t=180 ([2]; [Ab] 0,25 µg/mL): 92 | Glucose concentration t=240 ([2]; [Ab] 0,25 µg/mL): 42 | dC/dT ([2]; [Ab] 0,25 µg/mL): 25 | F=the rate of change in glucose concentration in relation to the reference ([2]; [Ab] 1 µg/mL): 96% | Glucose concentration t=60 ([2]; [Ab] 1 µg/mL): 161 | Glucose concentration t=120 ([2]; [Ab] 1 µg/mL): 140 | Glucose concentration t=180 ([2]; [Ab] 1 µg/mL): 97 | Glucose concentration t=240 ([2]; [Ab] 1 µg/mL): 51 | dC/dT ([2]; [Ab] 1 µg/mL): 32 | F=the rate of change in glucose concentration in relation to the reference ([2]; [Ab] 2 µg/mL): 88% | Glucose concentration t=60 ([2]; [Ab] 2 µg/mL): 160 | Glucose concentration t=120 ([2]; [Ab] 2 µg/mL): 143 | Glucose concentration t=180 ([2]; [Ab] 2 µg/mL): 101 | Glucose concentration t=240 ([2]; [Ab] 2 µg/mL): 53 | dC/dT ([2]; [Ab] 2 µg/mL): 30 | F=the rate of change in glucose concentration in relation to the reference ([2]; [Ab] 4 µg/mL): 39% | Glucose concentration t=60 ([2]; [Ab] 4 µg/mL): 157 | Glucose concentration t=120 ([2]; [Ab] 4 µg/mL): 147 | Glucose concentration t=180 ([2]; [Ab] 4 µg/mL): 131 | Glucose concentration t=240 ([2]; [Ab] 4 µg/mL): 107 | dC/dT ([2]; [Ab] 4 µg/mL): 13 | F=the rate of change in glucose concentration in relation to the reference ([2]; [Ab] 8 µg/mL): 6% | Glucose concentration t=60 ([2]; [Ab] 8 µg/mL): 150 | Glucose concentration t=120 ([2]; [Ab] 8 µg/mL): 150 | Glucose concentration t=180 ([2]; [Ab] 8 µg/mL): 146 | Glucose concentration t=240 ([2]; [Ab] 8 µg/mL): 149 | dC/dT ([2]; [Ab] 8 µg/mL): 2 | F=the rate of change in glucose concentration in relation to the reference ([2]; [Ab] 16 µg/mL): 7% | Glucose concentration t=60 ([2]; [Ab] 16 µg/mL): 157 | Glucose concentration t=120 ([2]; [Ab] 16 µg/mL): 153 | Glucose concentration t=180 ([2]; [Ab] 16 µg/mL): 152 | Glucose concentration t=240 ([2]; [Ab] 16 µg/mL): 149 | dC/dT ([2]; [Ab] 16 µg/mL): 3 | F=the rate of change in glucose concentration in relation to the reference ([2]; [Ab] 32 µg/mL): 13% | Glucose concentration t=60 ([2]; [Ab] 32 µg/mL): 157 | Glucose concentration t=120 ([2]; [Ab] 32 µg/mL): 140 | Glucose concentration t=180 ([2]; [Ab] 32 µg/mL): 148 | Glucose concentration t=240 ([2]; [Ab] 32 µg/mL): 146 | dC/dT ([2]; [Ab] 32 µg/mL): 5 | MIC EUCAST, range in parentheses [3]: 0.5 to 2 µg/mL | MIC EUCAST [3]: 1 µg/mL (≈ 0.69 µM) | MIC EUCAST, range in parentheses [4, 5]: 1 to 4 µg/mL | MIC EUCAST [4, 6]: 2 µg/mL (≈ 1.38 µM)
